Earlier results in publication PMC11224109, “Synthesis and preclinical evaluation of novel ^18F-vancomycin-based tracers for the detection of bacterial infections using positron emission tomography” (European Journal of Nuclear Medicine and Molecular Imaging, 2024).

Settings: cited from earlier work

SMILES: CN[C@H](CC(C)C)C(=O)N[C@H]1C(=O)N[C@@H](CC(N)=O)C(=O)N[C@H]2C(=O)N[C@H]3C(=O)N[C@H](C(=O)N[C@H](C(=O)O)c4cc(O)cc(O)c4-c4cc3ccc4O)[C@H](O)c3ccc(c(Cl)c3)Oc3cc2cc(c3O[C@@H]2O[C@H](CO)[C@@H](O)[C@H](O)[C@H]2O[C@H]2C[C@](C)(N)[C@H](O)[C@H](C)O2)Oc2ccc(cc2Cl)[C@H]1O [vancomycin]
- Clinically relevant serum levels: about 15 µg/mL
